Measurements from patent US8772504B2, “Substituted benzoxazole, benzimidazole, oxazolopyridine and imidazopyridine derivatives as gamma secretase modulators” (Janssen Pharmaceuticals, Inc., priority 2009, dated 2014).

Assays:
Aβtotal = assay: In vivo efficacy Method 1: brain soluble Aβtotal by ELISA; parameters: species or system mouse; details: Table 4a, single oral dose, overnight fasted animals, sacrificed after 4 h, soluble fraction of brain homogenates
In short: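 Overnight-fasted rodents or APP transgenic mice given a single oral dose in 20% Captisol or 20% hydroxypropyl β-cyclodextrin and sacrificed after 4 h. Right-hemisphere homogenate high-speed supernatant used: neutralized portion for Aβtotal, Oasis HLB-purified and concentrated eluate for Aβ42, both quantified by ELISA.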

[1] = system: T1, Notch-processing activity of the γ-secretase-complex; assay: Notch cell-based assay (N2-CHO/DL-CHO co-culture, Dual-Glo luciferase); parameters: species or system mouse; details: N2-CHO/DL-CHO co-culture 16 h; five-point curve 3 μM-0.3 nM
T1 construct: average IC50 Notch cell-based assay (luciferase readout); other: N2-CHO/DL-CHO co-culture 16 h; five-point curve 3 μM-
Description: The Notch cell-based assay was based on the interaction of Notch and its ligand in a co-culture system and utilized the Dual-Glo Luciferase Assay System (Promega) to monitor NICD production. 2 stable cell lines, N2-CHO and DL-CHO, were established to express full-length mouse Notch2 and Delta respectively. Cells that expressed mouse Notch were also transfected with 2 plasmids, pTP1-Luc and pCMV-RLuc, to express firefly and Renilla luciferase. Expression of firefly luciferase was under the control of TP1 promoter that responded to NICD activation.
N2-CHO cells were seeded at 1×10^5/well in 24-well plates the day before transfection. On the second day, cells were double transfected with 3 μg/well pTP1-Luc (expressing firefly luciferase) and 0.3 ng/well pCMV-RLuc (expressing Renilla luciferase). After 6 h incubation, transfected N2-CHO cells were washed and DL-CHO cells (2×10^5 cells/well) were added.
Compounds were pre-mixed with DL-CHO cell suspension in a five-point curve. Typically, compound treatment was performed in duplicate with a serial 1:10 dilution (3 μM-0.3 nM) in DMSO. The final concentration of DMSO in a given culture was 1%. Controls included non-transfected cells and transfected cells treated with a GSI or DMSO only. Luciferase assays were performed after 16 h co-culture and compound treatment.
The luciferase assay was carried out according to manufacture's instructions. Briefly, cells were washed with PBS (Phosphate Buffered Saline), lysed with Passive Lysis Buffer (Promega), and incubated at room temperature for 20 min. Lysates were mixed with Dual-Glo Luciferase Reagent and the firefly luciferase activity was measured by reading the luminescence signal in the EnVision 2101 Multilabel reader. Dual-Glo Stop & Glo Reagent was then added to each well and the Renilla luciferase signal was measured.

Compound | Aβtotal (% Ctrl) _Mean (Aβtotal) [% Ctrl] | inhibition in Notch cell-based assay (luciferase readout) [1]
COc1cc(Nc2cccc3c2nc(-c2ccc(F)cc2)n3C)ccc1-n1cnc(C)c1 [Compound 1] | 100 | –
COc1cc(Nc2cccc3c2nc(-c2ccc(F)cc2)n3C)ccc1-n1cnc(C)n1 [Compound 4] | 92 | –
COc1cc(Nc2nccc3c2nc(-c2ccc(F)cc2)n3C)ccc1-n1cnc(C)c1 [Compound 8] | 91 | –
COc1nc(Nc2cccc3c2nc(-c2ccc(F)cc2)n3C)ccc1-n1cnc(C)c1 [Compound 15] | 83 | non-inhibitory
CCn1c(CC2CC2)nc2c(Nc3ccc(-n4cnc(C)c4)c(OC)c3)cccc21 [Compound 36] | 95 | –
COc1cc(Nc2cccc3c2nc(Oc2ccccc2)n3C)ccc1-n1cnc(C)c1 [Compound 61] | 97 | –
Cc1cn(-c2ccc(Nc3cccc4c3nc(-c3ccc(F)cc3)n4C)cc2F)cn1 [Compound 67] | 99 | –
Cc1ncn(-c2ccc(Nc3cccc4c3nc(-c3ccc(F)cc3)n4C(C)C)cc2)n1.Cl.Cl [Compound 73] | 97 | –
COc1cc(Nc2cccc3c2nc(-c2ccc(F)cc2)n3C(C)C)ccc1-n1cnc(C)n1.Cl.Cl [Compound 75] | 92 | –
Cc1ncn(-c2ccc(Nc3cccc4c3nc(-c3ccc(F)cc3)n4C(C)C)cn2)n1 [Compound 76] | 102 | –
COc1cc(Nc2nccc3c2nc(-c2ccc(F)cc2)n3C)ccc1-n1cnc(C)n1 [Compound 92] | 103 | non-inhibitory
COc1cc(-c2nc3c(Nc4ccc(-n5cnc(C)n5)c(OC)c4)nccc3n2C)ccc1Cl [Compound 114] | – | non-inhibitory
COc1nc(Nc2cc(F)cc3c2nc(-c2ccc(F)cc2)n3C)ccc1-n1cnc(C)c1 [Compound 115] | 93 | –
COc1cc(Nc2nccc3c2nc(-c2ccccc2C(F)(F)F)n3C)ccc1-n1cnc(C)n1 [Compound 130] | 94 | non-inhibitory
COc1cc(Nc2nc(C)cc3c2nc(-c2ccc(F)cc2)n3C)ccc1-n1cnc(C)n1 [Compound 164] | 97 | –
